Paper PMC7486443, “Generation of Phenothiazine with Potent Anti-TLK1 Activity for Prostate Cancer Therapy” (iScience, 2020)

What was measured:
Assay in all cases: biochemical
Design in all cases: DiscoverX KINOMEscan scanMAX competition binding panel, single concentration, percent of control; remaining binding: dose or concentration left out as unconfirmed
Conditions in all cases: KINOMEscan binding, percent of control; read-out: Table S4_SCANMAX REPORT - related to Fig. 1 / Percent Control
MARK2 = MARK2 (Homo sapiens, UniProt Q7KZI7)
DCAMKL1 = biological target: T1, DCAMKL1 (Homo sapiens, UniProt O15075)
T1 construct: gene DCLK1

CAMKK1 = CAMKK1 (Homo sapiens, UniProt Q8N5S9)
Sequence of CAMKK1 (Q8N5S9 whole entry): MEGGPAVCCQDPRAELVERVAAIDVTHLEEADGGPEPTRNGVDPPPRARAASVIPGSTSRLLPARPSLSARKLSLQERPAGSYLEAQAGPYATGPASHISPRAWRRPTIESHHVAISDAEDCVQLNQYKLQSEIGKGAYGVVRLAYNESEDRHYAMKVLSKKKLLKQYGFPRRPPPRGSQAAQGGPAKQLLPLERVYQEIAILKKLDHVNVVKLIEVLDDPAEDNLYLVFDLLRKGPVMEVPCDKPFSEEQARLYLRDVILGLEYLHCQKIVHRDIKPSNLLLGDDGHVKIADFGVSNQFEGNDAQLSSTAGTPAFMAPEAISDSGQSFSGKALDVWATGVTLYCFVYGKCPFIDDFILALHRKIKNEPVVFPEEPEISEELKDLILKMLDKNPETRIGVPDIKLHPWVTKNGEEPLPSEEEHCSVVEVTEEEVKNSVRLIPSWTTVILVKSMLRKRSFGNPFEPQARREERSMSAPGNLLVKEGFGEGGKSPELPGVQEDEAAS

CDKL1 = CDKL1 (Homo sapiens, UniProt Q00532)
Sequence of CDKL1 (Q00532 whole entry): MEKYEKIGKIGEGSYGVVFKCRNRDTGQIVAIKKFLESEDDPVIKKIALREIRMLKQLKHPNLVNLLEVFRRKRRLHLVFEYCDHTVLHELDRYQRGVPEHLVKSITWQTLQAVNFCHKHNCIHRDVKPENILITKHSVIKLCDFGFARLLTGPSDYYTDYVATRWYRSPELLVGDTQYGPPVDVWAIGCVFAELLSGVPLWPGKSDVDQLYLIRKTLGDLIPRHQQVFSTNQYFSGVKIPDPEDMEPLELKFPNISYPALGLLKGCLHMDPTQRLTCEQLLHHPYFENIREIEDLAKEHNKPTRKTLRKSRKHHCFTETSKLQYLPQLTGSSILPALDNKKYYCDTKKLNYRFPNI

RIPK4 = RIPK4 (Homo sapiens, UniProt P57078)
MAP4K5 = MAP4K5 (Homo sapiens, UniProt Q9Y4K4)
Sequence of MAP4K5 (Q9Y4K4 whole entry): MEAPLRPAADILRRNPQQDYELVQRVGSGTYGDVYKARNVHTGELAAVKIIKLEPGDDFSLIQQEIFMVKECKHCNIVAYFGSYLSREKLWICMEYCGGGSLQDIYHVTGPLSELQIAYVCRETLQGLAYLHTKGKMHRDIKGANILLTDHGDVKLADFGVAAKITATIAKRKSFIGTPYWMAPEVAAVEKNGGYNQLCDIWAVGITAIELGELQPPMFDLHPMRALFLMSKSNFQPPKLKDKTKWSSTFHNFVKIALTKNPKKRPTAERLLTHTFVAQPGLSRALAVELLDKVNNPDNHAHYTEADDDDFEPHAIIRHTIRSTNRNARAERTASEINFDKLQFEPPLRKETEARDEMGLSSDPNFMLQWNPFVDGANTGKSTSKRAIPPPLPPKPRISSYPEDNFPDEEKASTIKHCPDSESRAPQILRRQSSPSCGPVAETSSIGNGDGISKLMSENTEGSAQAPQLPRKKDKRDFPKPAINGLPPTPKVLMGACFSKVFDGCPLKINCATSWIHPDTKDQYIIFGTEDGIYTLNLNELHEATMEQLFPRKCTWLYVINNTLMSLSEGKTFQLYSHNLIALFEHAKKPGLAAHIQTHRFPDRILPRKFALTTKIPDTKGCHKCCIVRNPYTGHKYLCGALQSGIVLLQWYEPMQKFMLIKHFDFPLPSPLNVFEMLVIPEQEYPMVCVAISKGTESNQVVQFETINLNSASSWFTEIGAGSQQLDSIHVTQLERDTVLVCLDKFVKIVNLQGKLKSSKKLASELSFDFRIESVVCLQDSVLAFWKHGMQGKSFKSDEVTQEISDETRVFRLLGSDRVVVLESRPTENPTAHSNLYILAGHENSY

MKNK2 = MKNK2 (Homo sapiens, UniProt Q9HBH9)
AURKB = AURKB (Homo sapiens, UniProt Q96GD4)
HCK = HCK (Homo sapiens, UniProt P08631)
DLK = biological target: T2, DLK (Homo sapiens, UniProt Q12852)
T2 construct: gene MAP3K12
T2 sequence (Q12852 whole entry): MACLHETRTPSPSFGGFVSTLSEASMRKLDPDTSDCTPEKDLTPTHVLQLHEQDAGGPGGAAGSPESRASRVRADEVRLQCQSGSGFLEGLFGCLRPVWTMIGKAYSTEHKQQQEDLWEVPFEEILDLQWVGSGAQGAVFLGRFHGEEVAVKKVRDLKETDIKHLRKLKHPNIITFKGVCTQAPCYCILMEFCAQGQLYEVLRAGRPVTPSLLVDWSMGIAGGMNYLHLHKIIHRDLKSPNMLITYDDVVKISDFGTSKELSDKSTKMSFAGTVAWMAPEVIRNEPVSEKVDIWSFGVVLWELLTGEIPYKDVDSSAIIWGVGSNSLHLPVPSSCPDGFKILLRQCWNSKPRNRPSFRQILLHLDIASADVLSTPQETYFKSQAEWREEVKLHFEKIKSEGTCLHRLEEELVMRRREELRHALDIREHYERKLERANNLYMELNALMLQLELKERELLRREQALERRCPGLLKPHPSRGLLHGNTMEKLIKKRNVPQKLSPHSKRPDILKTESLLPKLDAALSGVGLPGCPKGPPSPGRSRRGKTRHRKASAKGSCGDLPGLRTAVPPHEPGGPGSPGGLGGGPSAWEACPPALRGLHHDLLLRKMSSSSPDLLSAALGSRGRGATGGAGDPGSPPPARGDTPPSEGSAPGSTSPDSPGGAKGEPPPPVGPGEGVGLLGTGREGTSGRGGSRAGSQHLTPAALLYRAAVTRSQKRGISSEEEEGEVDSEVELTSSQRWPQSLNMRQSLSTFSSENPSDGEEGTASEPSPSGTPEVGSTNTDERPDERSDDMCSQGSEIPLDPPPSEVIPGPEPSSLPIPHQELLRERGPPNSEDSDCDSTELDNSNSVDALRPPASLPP

PAK2 = PAK2 (Homo sapiens, UniProt Q13177)
CSNK1G1 = CSNK1G1 (Homo sapiens, UniProt Q9HCP0)
Sequence of CSNK1G1 (Q9HCP0 whole entry): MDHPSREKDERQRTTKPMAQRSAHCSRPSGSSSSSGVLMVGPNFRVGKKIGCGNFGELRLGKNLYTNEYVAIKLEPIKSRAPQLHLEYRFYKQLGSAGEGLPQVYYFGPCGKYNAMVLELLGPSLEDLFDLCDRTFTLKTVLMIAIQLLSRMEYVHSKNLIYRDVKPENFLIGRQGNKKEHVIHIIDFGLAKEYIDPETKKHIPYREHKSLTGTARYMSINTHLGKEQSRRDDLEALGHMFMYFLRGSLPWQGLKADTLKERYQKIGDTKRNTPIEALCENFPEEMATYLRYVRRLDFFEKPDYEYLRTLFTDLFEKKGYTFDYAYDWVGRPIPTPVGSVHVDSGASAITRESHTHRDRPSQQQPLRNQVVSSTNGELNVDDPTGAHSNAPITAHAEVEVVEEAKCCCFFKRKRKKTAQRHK

NDR2 = biological target: T3, NDR2 (Homo sapiens, UniProt Q9Y2H1)
T3 construct: gene STK38L

GRK3 = GRK3 (Homo sapiens, UniProt P35626)
CAMKK2 = CAMKK2 (Homo sapiens, UniProt Q96RR4)
Sequence of CAMKK2 (Q96RR4 whole entry): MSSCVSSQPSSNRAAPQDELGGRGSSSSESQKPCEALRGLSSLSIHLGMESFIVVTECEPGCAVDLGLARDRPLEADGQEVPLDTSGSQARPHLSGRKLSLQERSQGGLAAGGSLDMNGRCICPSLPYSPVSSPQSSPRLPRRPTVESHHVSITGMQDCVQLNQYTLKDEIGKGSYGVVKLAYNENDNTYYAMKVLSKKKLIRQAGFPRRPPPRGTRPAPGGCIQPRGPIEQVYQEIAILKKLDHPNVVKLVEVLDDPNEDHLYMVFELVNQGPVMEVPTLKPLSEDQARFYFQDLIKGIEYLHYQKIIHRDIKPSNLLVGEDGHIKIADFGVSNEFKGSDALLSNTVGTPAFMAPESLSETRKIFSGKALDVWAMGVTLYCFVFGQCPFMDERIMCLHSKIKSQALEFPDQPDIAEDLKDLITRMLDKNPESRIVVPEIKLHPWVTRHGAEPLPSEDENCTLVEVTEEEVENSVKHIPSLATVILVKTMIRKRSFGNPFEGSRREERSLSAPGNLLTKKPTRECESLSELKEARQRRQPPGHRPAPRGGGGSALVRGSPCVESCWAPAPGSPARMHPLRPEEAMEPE

TAK1 = biological target: T4, TAK1 (Homo sapiens, UniProt O43318)
T4 construct: gene MAP3K7
T4 sequence (O43318 whole entry): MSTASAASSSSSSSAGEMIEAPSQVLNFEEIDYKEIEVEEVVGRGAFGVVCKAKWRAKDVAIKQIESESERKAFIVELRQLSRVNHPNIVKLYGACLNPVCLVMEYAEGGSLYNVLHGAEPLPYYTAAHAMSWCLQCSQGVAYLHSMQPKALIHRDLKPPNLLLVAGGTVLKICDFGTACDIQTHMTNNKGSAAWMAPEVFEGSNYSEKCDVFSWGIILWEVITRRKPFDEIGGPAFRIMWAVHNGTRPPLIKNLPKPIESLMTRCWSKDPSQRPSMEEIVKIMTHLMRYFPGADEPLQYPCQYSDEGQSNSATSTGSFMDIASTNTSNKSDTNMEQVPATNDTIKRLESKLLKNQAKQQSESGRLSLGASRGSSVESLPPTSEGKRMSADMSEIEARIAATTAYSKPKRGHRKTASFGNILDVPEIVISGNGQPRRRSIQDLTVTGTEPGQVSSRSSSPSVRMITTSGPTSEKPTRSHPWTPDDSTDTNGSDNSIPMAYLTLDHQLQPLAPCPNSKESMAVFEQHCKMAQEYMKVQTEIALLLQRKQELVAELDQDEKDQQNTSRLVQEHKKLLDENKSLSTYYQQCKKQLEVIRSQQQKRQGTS

CSNK1A1 = CSNK1A1 (Homo sapiens, UniProt P48729)
Sequence of CSNK1A1 (P48729 whole entry): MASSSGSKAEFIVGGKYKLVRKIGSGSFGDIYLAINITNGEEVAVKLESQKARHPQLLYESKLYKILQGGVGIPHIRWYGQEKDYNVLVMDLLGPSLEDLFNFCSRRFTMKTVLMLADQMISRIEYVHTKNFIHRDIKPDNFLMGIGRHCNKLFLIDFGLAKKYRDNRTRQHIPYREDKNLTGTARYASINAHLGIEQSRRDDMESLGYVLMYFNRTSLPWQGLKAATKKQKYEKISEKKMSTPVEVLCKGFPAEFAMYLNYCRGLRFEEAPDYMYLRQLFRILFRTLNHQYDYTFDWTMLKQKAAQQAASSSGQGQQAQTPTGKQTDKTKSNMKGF

TSSK3 = TSSK3 (Homo sapiens, UniProt Q96PN8)
Sequence of TSSK3 (Q96PN8 whole entry): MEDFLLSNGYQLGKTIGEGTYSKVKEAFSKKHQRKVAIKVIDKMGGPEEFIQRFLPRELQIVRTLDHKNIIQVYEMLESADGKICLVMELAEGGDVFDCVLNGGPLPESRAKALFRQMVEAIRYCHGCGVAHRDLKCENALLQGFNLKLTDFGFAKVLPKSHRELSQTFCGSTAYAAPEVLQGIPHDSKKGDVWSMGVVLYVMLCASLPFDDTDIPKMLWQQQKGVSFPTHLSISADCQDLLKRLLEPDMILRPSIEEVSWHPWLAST

TRKA = biological target: T5, TRKA (Homo sapiens, UniProt P04629)
T5 construct: gene NTRK1

Work on `c1ccc2c(c1)Sc1ccccc1N2CCN1CCOCC1` [J54] yielded a remaining binding (MARK2) of 99%, a remaining binding (DCAMKL1) of 100% and a remaining binding (CAMKK1) of 100%. The remaining binding (CDKL1) was 79%, the remaining binding (RIPK4) was 100% and the remaining binding (MAP4K5) was 68%. It also gave a remaining binding (MKNK2) of 90%, a remaining binding (AURKB) of 100% and a remaining binding (HCK) of 100%. The remaining binding (DLK) was 100%, the remaining binding (PAK2) was 76% and the remaining binding (CSNK1G1) was 100%. For the same molecule, the remaining binding (NDR2) was 100%, the remaining binding (GRK3) was 93% and the remaining binding (CAMKK2) was 100%. It also gave a remaining binding (TAK1) of 97%, a remaining binding (CSNK1A1) of 100% and a remaining binding (TSSK3) of 87%. The remaining binding (TRKA) was 82%.
